Experimental data from PubChem BioAssay AID1918934 (Molecular Pharmacology Branch, DTP, NCI, 2023).

Test system: 292921-168-R-J2-PDC complex spheroid viability
Assay: Anticancer human tumor 292921-168-R-J2-PDC patient-derived pancreatic carcinoma cell line growth inhibition
Conditions: for IC50: curve of first compound; for viability, T/C: stronger effect = lower value
Source text: Multicellular complex tumor spheroid response to LSD1 Inhibitor Iadademstat in combination with a variety of drugs and investigational agents in selected tumor cell lines
The current study was undertaken to assess response to LSD1 inhibitors in combination with standard-of-care drugs and investigational agents in solid tumor complex spheroid models as well as in the K-562 leukemia. Complex spheroids include a stromal component modeled by human endothelial cells (HUVEC) and fibroblasts modeled by human mesenchymal stem cells (MSCs). The concentration ranges selected for each drug and investigational agent were based upon clinically achievable concentrations if the clinical Cmax of the agent was known.
Compounds. The drugs and investigational agents used in this study are listed on Table 1. All of the agents used, including staurosporine (NSC755774) and gemcitabine (NSC613327), were obtained from the Developmental Therapeutics Program, NCI. FDA-approved anticancer drugs are available from the NCI at http://dtp.nci.nih.gov/branches/dscb/oncology_drugset_explanation.html. Drugs and investigational agents were >95% pure by proton nuclear magnetic resonance (NMR) and liquid chromatography/mass spectrometry (LC/MS). Stock solutions were prepared at 400x in DMSO, stored at -70 degrees C, and diluted in fresh medium prior to their use. The final concentration of DMSO in cell culture wells never exceeded 0.25% (v/v). The FDA-approved anticancer drug set is available from the Developmental Therapeutics Program at https://dtp.cancer.gov/organization/dscb/obtaining/available_plates.htm. All drugs and investigational agents were tested over a range starting from a high concentration at or near the clinical Cmax and decreasing in half-log increments. If the clinical Cmax for an agent had not been determined, the highest concentration tested was 10 microM.
Cell Lines. The patient-derived cancer cell (PDC) lines: 292921-168-R-J2-PDC, K24384-001-R-PDC, and 521955-158-R2-J5-PDC pancreatic carcinomas, 556581-035-R-J1 ovarian carcinoma, 324938-238-R-J1-PDC, 855422-203-R-J1-PDC and 883617-216-R-J1-PDC urothelial bladder carcinomas, 743489-274-T-PDC renal cell carcinoma, 138582-R-J1 Merkel cell tumor, K60290-347-R-J1 and K57222-313-R-J1-PDC glioblastomas, 653999-131-R-J2-PDC, LG0703-F948-PDC, and 349418-098-R-PDC non-small cell lung carcinomas, 885512-296-R-J2-PDC, 171881-019-R-J1-PDC breast carcinomas and 186277-243-T-J2-PDC and 233499-124-R-J2-PDC colon carcinomas were obtained from the NCI Patient-Derived Models Repository (PDMR, https://pdmr.cancer.gov). The established cell lines NCI/ADR-RES (RRID:CVCL_14520 and OVCAR-5 (RRID:CVCL_1628) ovarian carcinomas, 786-O (RRID:CVCL_1051) and A498 (RRID:CVCL_A498) renal cell carcinoma, NCI-H211 (ATCC, cat. CRL-5824; RRID:CVCL_1529), NCI-H196 (ATCC, cat. CRL-5823, RRID:CVCL_1509), SW 1271 (ATCC, cat. CRL-2177, RRID:CVCL_1716) and NCI-H1876 (ATCC, cat. CRL-5902, RRID:CVCL_1503) small cell lung carcinomas, MDA-MB-231 (RRID:CVCL_0062) and MDA-MB-468 (RRID:CVCL_0419)breast carcinomas (10-12). Pooled donor human umbilical vein endothelial cells (HUVEC, Lonza, cat. CC-2519) and human mesenchymal stem cells (hMSC, Lonza, cat. PT-2501) were purchased from Lonza (Walkersville, MD).
Cell Culture. All cells were maintained in an incubator at 37 degrees C and 5% CO2 with 95% humidity. The PDC lines were cultured according to standard operating procedures established by the NCI PDMR (https://pdmr.cancer.gov). Briefly all PDCs were thawed and cultured in Matrigel-coated flasks prepared with a working solution of 1X Ham's F-12 nutrient mix, without supplementation (Invitrogen, Waltham, MA, cat. 11765054), 100 U/mL penicillin-streptomycin (Invitrogen, cat. 15140122), and 2.5% Matrigel (Corning Inc., Corning, NY, cat. 354248) for the first three passages. […]
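Also: seven day compound exposure before luminescent viability read.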
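For viability, T/C in this document: 100% = DMSO vehicle control wells.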

With `CCc1c2c(nc3ccc(O)cc13)-c1cc3c(c(=O)n1C2)COC(=O)[C@]3(O)CC` + NC1CC1c1ccc(-c2cccc(O)c2)cc1 the IC50 (second compound 0.1 µM) was < 0.949 nM, the IC50 (second compound 0.316 µM) was < 0.949 nM and the IC50 (second compound 1 µM) was < 0.949 nM. The IC50 (second compound 3.16 µM) was < 0.949 nM, the IC50 (second compound 10 µM) was < 0.949 nM and the viability, T/C (second compound 0.1 µM, first compound 0.000949 µM) was 4.87%. The viability, T/C (second compound 0.1 µM, first compound 0.003 µM) was 2.64%, the viability, T/C (second compound 0.1 µM, first compound 0.00949 µM) was 1.33% and the viability, T/C (second compound 0.1 µM, first compound 0.03 µM) was 1.09%. The viability, T/C (second compound 0.1 µM, first compound 0.0949 µM) was 0.85%, the viability, T/C (second compound 0.1 µM, first compound 0.3 µM) was 1.26% and the viability, T/C (second compound 0.316 µM, first compound 0.000949 µM) was 4.37%. The viability, T/C (second compound 0.316 µM, first compound 0.003 µM) was 2.24%, the viability, T/C (second compound 0.316 µM, first compound 0.00949 µM) was 1.21% and the viability, T/C (second compound 0.316 µM, first compound 0.03 µM) was 0.88%. It also gave a viability, T/C (second compound 0.316 µM, first compound 0.0949 µM) of 1.1%, a viability, T/C (second compound 0.316 µM, first compound 0.3 µM) of 1.26% and a viability, T/C (second compound 1 µM, first compound 0.000949 µM) of 4.54%. For the same molecule, the viability, T/C (second compound 1 µM, first compound 0.003 µM) was 2.69%, the viability, T/C (second compound 1 µM, first compound 0.00949 µM) was 1.23% and the viability, T/C (second compound 1 µM, first compound 0.03 µM) was 1.12%. The viability, T/C (second compound 1 µM, first compound 0.0949 µM) was 1.21%, the viability, T/C (second compound 1 µM, first compound 0.3 µM) was 1.22% and the viability, T/C (second compound 3.16 µM, first compound 0.000949 µM) was 4.42%. It also gave a viability, T/C (second compound 3.16 µM, first compound 0.003 µM) of 2.55%, a viability, T/C (second compound 3.16 µM, first compound 0.00949 µM) of 1.18% and a viability, T/C (second compound 3.16 µM, first compound 0.03 µM) of 0.79%. The viability, T/C (second compound 3.16 µM, first compound 0.0949 µM) was 1.06%, the viability, T/C (second compound 3.16 µM, first compound 0.3 µM) was 1.13% and the viability, T/C (second compound 10 µM, first compound 0.000949 µM) was 5.79%. For the same molecule, the viability, T/C (second compound 10 µM, first compound 0.003 µM) was 3.19%, the viability, T/C (second compound 10 µM, first compound 0.00949 µM) was 1.1% and the viability, T/C (second compound 10 µM, first compound 0.03 µM) was 1.82%. The viability, T/C (second compound 10 µM, first compound 0.0949 µM) was 2.43% and the viability, T/C (second compound 10 µM, first compound 0.3 µM) was 1.15%.
